Assay results published in article PMC6857076 (Pharmacology Research & Perspectives, 2019).
Where two headings read alike, the source gives them in different places.

Legend:
[1] = system: NK cell counts; settings: RA; upadacitinib 6 mg BID; week 12; cited from earlier work
[2] = system: IL-13 cytokine receptor (JAK1/JAK2, JAK1/TYK2); test: Human whole blood, IL-13-induced pSTAT6, CD19+ cells; type: cell-based
Method: Blood was warmed to 37°C prior to use.
(§1) Anti‐cell surface antibodies were added 15 minutes prior to cytokine stimulation; anti‐CD14‐Pacific Blue (0.5 µL/well) to GM‐CSF, IFNγ, and TPO‐treated samples; anti‐CD3‐BV650 (0.5 µL/well) plus anti‐CD14‐Pacific Blue (0.5 µL/well) to IL‐6‐treated samples; and anti‐CD19‐BV421 (0.5 µL/well) plus anti‐CD14‐AF488 (0.5 µL/well) to IL‐13‐treated samples.
(§2) The lymphocyte population was gated for pSTAT histogram analysis for IFNα‐, IL‐2‐, IL‐3‐, IL‐4‐, IL‐7‐, IL‐10‐, IL‐12‐, IL‐15‐, IL‐21‐, IL‐23‐, and IL‐27‐treated samples; granulocyte population for G‐CSF‐treated samples; CD14^+ cells for GM‐CSF‐, IFNγ‐, and TPO‐treated samples; CD3^+ cells and CD14^+ cells for IL‐6‐treated samples; CD14^+ cells and CD19^+ cells for IL‐13‐treated samples; all events (entire populations) for EPO‐treated cells. Background fluorescence was defined using unstimulated cells and a gate was placed at the foot of the peak to include ~0.5% gated population.
(§3) Histogram statistical analysis was performed using FACSDiva version 8.0.1 (BD Biosciences). Relative fluorescence unit (RFU), which measures the level of pSTAT, was calculated by multiplying the percent positive population and its mean fluorescence. Data from 11 compound concentrations (singlicate at each concentration) were normalized as a percentage of control, as shown in Equation 1:(1) %ofcontrol=100×A−B/C−B
(§4) A, RFU from wells containing compound and cytokine; B, RFU from wells without cytokine (minimum fluorescence); C, RFU from wells containing only cytokine (maximum fluorescence).
(§5) Inhibition curves and IC50 values were determined using Prism software (Version 7, GraphPad).

[3] = system: IL-15 cytokine receptor (JAK1/JAK3); test: Human whole blood, IL-15-induced pSTAT5, lymphocytes; type: cell-based; settings: for IC50: Homo sapiens, Lymphocyte
Method: Blood was warmed to 37°C prior to use.
(§6) Then, 5 µL of PBS or cytokine was added to each well (5 µL/well; final, 10 U/mL EPO, 100 ng/mL G‐CSF, 10 ng/mL GM‐CSF, 5000 U/mL IFNα, 100 ng/mL IFNγ, 50 ng/mL IL‐2, 50 ng/mL IL‐3, 5 ng/mL IL‐4, 50 ng/mL IL‐6, 30 ng/mL IL‐7, 30 ng/mL IL‐10, 30 ng/mL IL‐12, 30 ng/mL IL‐13, 30 ng/mL IL‐15, 50 ng/mL IL‐21, 25 ng/mL IL‐23, 1000 ng/mL IL‐27) and incubated for 15 minutes. Anti‐cell surface antibodies were added 15 minutes prior to cytokine stimulation; anti‐CD14‐Pacific Blue (0.5 µL/well) to GM‐CSF, IFNγ, and TPO‐treated samples; anti‐CD3‐BV650 (0.5 µL/well) plus anti‐CD14‐Pacific Blue (0.5 µL/well) to IL‐6‐treated samples; and anti‐CD19‐BV421 (0.5 µL/well) plus anti‐CD14‐AF488 (0.5 µL/well) to IL‐13‐treated samples.
(§7) One more wash was done with staining buffer and all samples were finally suspended in 150 µL/well of the desired anti‐pSTAT antibodies at 1:150 dilution in staining buffer; anti‐pSTAT1‐AF647 in IFNγ‐treated samples; anti‐pSTAT1‐AF488 and anti‐pSTAT3‐AF647 in IFNα‐, IL‐6‐, and IL‐27‐treated samples; anti‐pSTAT3‐AF647 in G‐CSF‐, IL‐10‐, IL‐21‐, and IL‐23‐treated samples; anti‐pSTAT4‐AF647 in IL‐12‐treated samples; anti‐pSTAT5‐AF647 in EPO‐, GM‐CSF‐, IL‐2‐, IL‐3‐, IL‐7‐, IL‐15‐, and TPO‐treated samples; anti‐pSTAT5‐AF488 and anti‐pSTAT6‐AF647 in IL‐4‐treated samples; and anti‐pSTAT6‐AF647 in IL‐13‐treated samples.
as §2, §3, §4, §5

[4] = system: IL-21 cytokine receptor (JAK1/JAK3); test: Human whole blood, IL-21-induced pSTAT3, lymphocytes; type: cell-based; settings: Lymphocyte
Method: Blood was warmed to 37°C prior to use.
as §6, §7, §2, §3, §4, §5

[5] = system: IFNα cytokine receptor (JAK1/TYK2); test: Human whole blood, IFNα-induced pSTAT3, lymphocytes; type: cell-based; settings: Lymphocyte
Method: Blood was warmed to 37°C prior to use.
as §6, §7, §2, §3, §4, §5

[6] = system: IL-7 cytokine receptor (JAK1/JAK3); test: Human whole blood, IL-7-induced pSTAT5, lymphocytes; type: cell-based; settings: Lymphocyte
Method: Blood was warmed to 37°C prior to use.
as §6, §7, §2, §3, §4, §5

[7] = system: IL-2 cytokine receptor (JAK1/JAK3); test: Human whole blood, IL-2-induced pSTAT5, lymphocytes; type: cell-based; settings: Lymphocyte
Method: Blood was warmed to 37°C prior to use.
as §6, §7, §2, §3, §4, §5

[8] = system: IL-23 cytokine receptor (JAK2/TYK2); test: Human whole blood, IL-23-induced pSTAT3, lymphocytes; type: cell-based; settings: Lymphocyte
Method: Blood was warmed to 37°C prior to use.
(§8) Then, 5 µL of PBS or cytokine was added to each well (5 µL/well; final, 10 U/mL EPO, 100 ng/mL G‐CSF, 10 ng/mL GM‐CSF, 5000 U/mL IFNα, 100 ng/mL IFNγ, 50 ng/mL IL‐2, 50 ng/mL IL‐3, 5 ng/mL IL‐4, 50 ng/mL IL‐6, 30 ng/mL IL‐7, 30 ng/mL IL‐10, 30 ng/mL IL‐12, 30 ng/mL IL‐13, 30 ng/mL IL‐15, 50 ng/mL IL‐21, 25 ng/mL IL‐23, 1000 ng/mL IL‐27) and incubated for 15 minutes. […]
as §2
(§9) Histogram statistical analysis was performed using FACSDiva version 8.0.1 (BD Biosciences). Relative fluorescence unit (RFU), which measures the level of pSTAT, was calculated by multiplying the percent positive population and its mean fluorescence. […]
as §5

[9] = unbound, Cav × fu; upadacitinib 15 mg QD
[10] = system: G-CSF cytokine receptor (JAK1/JAK2); test: Human whole blood, G-CSF-induced pSTAT3, granulocytes; type: cell-based
Method: Blood was warmed to 37°C prior to use.
as §8, §2, §9, §5

[11] = system: EPO cytokine receptor (JAK2/JAK2); test: Human whole blood spiked with CD34+-derived erythroid progenitor cells, EPO-induced pSTAT5; type: cell-based; settings: for IC50: Homo sapiens, Erythroid progenitor cell
Method: CD34^+ cells were then harvested, washed once with Dulbecco's (D)‐PBS, and suspended at 0.5 x 10^6 cells/mL in human whole blood to be used in the EPO stimulation assay.
Blood was warmed to 37°C prior to use.
Background fluorescence was defined using unstimulated cells and a gate was placed at the foot of the peak to include ~0.5% gated population.
as §3, §4, §5

[12] = system: IFNα cytokine receptor (JAK1/TYK2); test: Human whole blood, IFNα-induced pSTAT1, lymphocytes; type: cell-based; settings: for IC50: Homo sapiens, Lymphocyte
Method: Blood was warmed to 37°C prior to use.
as §6, §7, §2, §3, §4, §5

[13] = system: IL-4 cytokine receptor (JAK1/JAK3); test: Human whole blood, IL-4-induced pSTAT6, lymphocytes; type: cell-based; settings: Lymphocyte
Method: Blood was warmed to 37°C prior to use.
as §6, §7, §2, §3, §4, §5

[14] = system: IL-6 cytokine receptor (JAK1/JAK2, JAK1/TYK2); test: Human whole blood, IL-6-induced pSTAT1, CD14+ cells; type: cell-based
Method: Blood was warmed to 37°C prior to use.
as §1, §2, §3, §4, §5

[15] = system: IFNγ cytokine receptor (JAK1/JAK2); test: Human whole blood, IFNγ-induced pSTAT1, CD14+ cells; type: cell-based; settings: for IC50: Homo sapiens
Method: Blood was warmed to 37°C prior to use.
as §6, §7, §2, §3, §4, §5

[16] = system: GM-CSF cytokine receptor (JAK2/JAK2); test: Human whole blood, GM-CSF-induced pSTAT5, CD14+ cells; type: cell-based; settings: Homo sapiens
Method: Blood was warmed to 37°C prior to use.
as §6, §7, §2, §3, §4, §5

[17] = system: IL-3 cytokine receptor (JAK2/JAK2); test: Human whole blood, IL-3-induced pSTAT5, lymphocytes; type: cell-based; settings: Homo sapiens, Lymphocyte
Method: Blood was warmed to 37°C prior to use.
as §6, §7, §2, §3, §4, §5

[18] = system: IL-27 cytokine receptor (JAK1/JAK2, JAK1/TYK2); test: Human whole blood, IL-27-induced pSTAT1, lymphocytes; type: cell-based; settings: Lymphocyte
Method: Blood was warmed to 37°C prior to use.
as §1, §2, §3, §4, §5

[19] = system: IL-4 cytokine receptor (JAK1/JAK3); test: Human whole blood, IL-4-induced pSTAT5, lymphocytes; type: cell-based; settings: Lymphocyte
Method: Blood was warmed to 37°C prior to use.
as §8, §2, §9, §5

[20] = system: IL-12 cytokine receptor (JAK2/TYK2); test: Human whole blood, IL-12-induced pSTAT4, lymphocytes; type: cell-based; settings: for IC50: Homo sapiens, Lymphocyte
Method: Blood was warmed to 37°C prior to use.
as §6, §7, §2, §3, §4, §5

[21] = system: IL-13 cytokine receptor (JAK1/JAK2, JAK1/TYK2); test: Human whole blood, IL-13-induced pSTAT6, CD14+ cells; type: cell-based
Method: Blood was warmed to 37°C prior to use.
as §1, §2, §3, §4, §5

[22] = system: IL-6 cytokine receptor (JAK1/JAK2, JAK1/TYK2); test: Human whole blood, IL-6-induced pSTAT1, CD3+ cells; type: cell-based; settings: for IC50: Homo sapiens
Method: Blood was warmed to 37°C prior to use.
as §6, §7, §2, §3, §4, §5

[23] = human; upadacitinib 15 mg QD; cited from earlier work
[24] = system: IL-6 cytokine receptor (JAK1/JAK2, JAK1/TYK2); test: Human whole blood, IL-6-induced pSTAT3, CD3+ cells; type: cell-based
Method: Blood was warmed to 37°C prior to use.
as §1, §2, §3, §4, §5

[25] = phase 3 RA studies; cited from earlier work
[26] = system: IL-10 cytokine receptor (JAK1/TYK2); test: Human whole blood, IL-10-induced pSTAT3, lymphocytes; type: cell-based; settings: Lymphocyte
Method: Blood was warmed to 37°C prior to use.
as §6, §7, §2, §3, §4, §5

[27] = in vitro; settings: both, human, pooled human plasma
[28] = system: CRP; settings: RA; upadacitinib 6 mg BID; cited from earlier work
[29] = system: IL-27 cytokine receptor (JAK1/JAK2, JAK1/TYK2); test: Human whole blood, IL-27-induced pSTAT3, lymphocytes; type: cell-based; settings: Lymphocyte
Method: Blood was warmed to 37°C prior to use.
as §6, §7, §2, §3, §4, §5

[30] = system: TPO cytokine receptor (JAK2/JAK2); test: Human whole blood, TPO-induced pSTAT5, CD14+ cells; type: cell-based; settings: Homo sapiens
Method: Blood was warmed to 37°C prior to use.
as §6, §7, §2, §3, §4, §5

CC[C@@H]1CN(C(=O)NCC(F)(F)F)C[C@@H]1c1cnc2cnc3[nH]ccc3n12 [Upadacitinib]
change from baseline in NK cell counts [1]: approximately −50 cells/mm^3
IC50 ([2]; read-out: IC50, IL-13, pSTAT6, CD19+ cells): 72 nM
IC50 ([2]; read-out: IC50,u, IL-13, pSTAT6, CD19+ cells): 35 nM
LogIC50, IL-15 induced pSTAT5, single experiment [3]: -7.157 log[M]
IC50 ([3]; read-out: IC50, IL-15, pSTAT5): 64 nM
IC50 ([3]; read-out: IC50, IL-15 induced pSTAT5, single experiment): 69.7 nM
IC50 ([3]; read-out: IC50,u, IL-15, pSTAT5): 31 nM
IC50 ([4]; read-out: IC50, IL-21, pSTAT3): 51 nM
IC50 ([4]; read-out: IC50,u, IL-21, pSTAT3): 25 nM
IC50 ([5]; read-out: IC50, IFNα, pSTAT3): 19 nM
IC50 ([5]; read-out: IC50,u, IFNα, pSTAT3): 9.2 nM
IC50 ([6]; read-out: IC50, IL-7, pSTAT5): 101 nM
IC50 ([6]; read-out: IC50,u, IL-7, pSTAT5): 49 nM
IC50 ([7]; read-out: IC50, IL-2, pSTAT5): 50 nM
IC50 ([7]; read-out: IC50,u, IL-2, pSTAT5): 24 nM
IC50 ([8]; read-out: IC50, IL-23, pSTAT3): 242 nM
IC50 ([8]; read-out: IC50,u, IL-23, pSTAT3): 117 nM
Cav,u [9]: 27.4 nM
IC50 ([10]; read-out: IC50, G-CSF, pSTAT3): 78 nM
IC50 ([10]; read-out: IC50,u, G-CSF, pSTAT3): 38 nM
LogIC50, EPO induced pSTAT5, single experiment [11]: -6.909 log[M]
IC50 ([11]; read-out: IC50, EPO induced pSTAT5, single experiment): 123 nM
IC50 ([11]; read-out: IC50, EPO, pSTAT5): 174 nM
IC50 ([11]; read-out: IC50,u, EPO, pSTAT5): 84 nM
LogIC50, IFNα induced pSTAT1, single experiment ([12]; Figure S1B, Donor 256, Exp 1): -7.685 log[M]
IC50 ([12]; read-out: IC50, IFNα induced pSTAT1, single experiment): 20.7 nM
IC50 ([12]; read-out: IC50, IFNα, pSTAT1): 21 nM
IC50 ([12]; read-out: IC50,u, IFNα, pSTAT1): 10 nM
IC50 ([13]; read-out: IC50, IL-4, pSTAT6): 77 nM
IC50 ([13]; read-out: IC50,u, IL-4, pSTAT6): 37 nM
IC50 ([14]; read-out: IC50, IL-6, pSTAT1, CD14+ cells): 26 nM
IC50 ([14]; read-out: IC50,u, IL-6, pSTAT1, CD14+ cells): 13 nM
LogIC50, IFNγ induced pSTAT1, single experiment [15]: -7.002 log[M]
IC50 ([15]; read-out: IC50, IFNγ induced pSTAT1, single experiment): 99.6 nM
IC50 ([15]; read-out: IC50, IFNγ, pSTAT1): 109 nM
IC50 ([15]; read-out: IC50,u, IFNγ, pSTAT1): 53 nM
IC50 ([16]; read-out: IC50, GM-CSF, pSTAT5): 782 nM
IC50 ([16]; read-out: IC50,u, GM-CSF, pSTAT5): 377 nM
IC50 ([17]; read-out: IC50, IL-3, pSTAT5): 326 nM
IC50 ([17]; read-out: IC50,u, IL-3, pSTAT5): 158 nM
IC50 ([18]; read-out: IC50, IL-27, pSTAT1): 52 nM
IC50 ([18]; read-out: IC50,u, IL-27, pSTAT1): 25 nM
IC50 ([19]; read-out: IC50, IL-4, pSTAT5): 8.2 nM
IC50 ([19]; read-out: IC50,u, IL-4, pSTAT5): 4 nM
LogIC50, IL-12 induced pSTAT4, single experiment [20]: -6.953 log[M]
IC50 ([20]; read-out: IC50, IL-12, pSTAT4): 145 nM
IC50 ([20]; read-out: IC50, IL-12 induced pSTAT4, single experiment): 112 nM
IC50 ([20]; read-out: IC50,u, IL-12, pSTAT4): 70 nM
IC50 ([21]; read-out: IC50, IL-13, pSTAT6, CD14+ cells): 126 nM
IC50 ([21]; read-out: IC50,u, IL-13, pSTAT6, CD14+ cells): 61 nM
LogIC50, IL-6 induced pSTAT1 (CD3+ cells), single experiment [22]: -7.893 log[M]
IC50 ([22]; read-out: IC50, IL-6, pSTAT1, CD3+ cells): 12 nM
IC50 ([22]; read-out: IC50, IL-6 induced pSTAT1 (CD3+ cells), single experiment): 12.8 nM
IC50 ([22]; read-out: IC50,u, IL-6, pSTAT1, CD3+ cells): 5.9 nM
Cav [23]: 49 nM
IC50 ([24]; read-out: IC50, IL-6, pSTAT3, CD3+ cells): 152 nM
IC50 ([24]; read-out: IC50,u, IL-6, pSTAT3, CD3+ cells): 73 nM
herpes zoster occurrence [25]: reported
IC50 ([26]; read-out: IC50, IL-10, pSTAT3): 90 nM
IC50 ([26]; read-out: IC50,u, IL-10, pSTAT3): 43 nM
fraction unbound at 6 h, 1 μmol/L [27]: 0.56
reduction of CRP levels from baseline to week 12 [28]: -8.8 mg/L
IC50 ([29]; read-out: IC50, IL-27, pSTAT3): 44 nM
IC50 ([29]; read-out: IC50,u, IL-27, pSTAT3): 21 nM
IC50 ([30]; read-out: IC50, TPO, pSTAT5): 297 nM
IC50 ([30]; read-out: IC50,u, TPO, pSTAT5): 143 nM
